# Measurements from US20230321101A1, “METHODS AND USES OF HALOFUGINONE” (The Regents of the University of California, priority 2020, published 2023).
# Like-named read-outs stand apart in the source and are kept apart here.
# Legend:
# DENV-2 (Dengue) = assay: DENV-2 antiviral immunofluorescence assay in Huh7 cells; type: cell-based; conditions: Dengue virus, DENV2, Huh-7, read-out: EC50 DENV-2
# Method: (§1) Experimental Procedure. The antiviral activity of 8 dilutions of each compound was explored by adding the drug to the assay cells 2 h after infection with the different viruses. Virus and compounds were left on the cells for the entire duration of the experiment (28 h for Zika virus and 24 h for all other viruses). The cytotoxicity of the same range of concentrations of compounds was determined by LDH release assay in the same cell lines.
# (§2) Cell plating. Cells were detached and counted following SOP-RA 003 and SOP-RA 004. Count was recorded in the Cell Count Logbook, Volume 1. For each virus four plates were seeded, two for the antiviral assay and two for the cytotoxicity assay. Cells were seeded in 100 μl/well of complete media at the following densities: • Huh7: 8,000 cells/well (Dengue) • SH-SY5Y: 10,000 cells/wells (Zika) • HeLa Tzmbl: 8,000 cells/well (HIV)
# (§3) Compounds dilutions. The 22.1 mM stocks were further diluted to 1 mM in DMSO by adding 211 μl of DMSO to 10 μl of compound. Three serial dilutions were prepared in different media for different viruses/cells. For each dilution, drugs were prepared at twice the final concentration in 50 μl volume, because they are diluted to the final concentration by an equal volume of virus or media.
# (§4) Infection. Cells were infected in 50 μl of supplemented media/well at the following multiplicity of infection (MOI): • DENV-2, MOI 1 • ZIKV, MOI 5 • HIV, MOI 0.5
# (§5) After removing culture media from cells, 50 μl of virus dilution were added to all wells except Column 11 (uninfected control), where the same volume of supplemented media was added. […]
# (§6) Infectivity readout. […] The primary antibodies were detected with an Alexa-488 conjugate secondary antibody (Life Technologies, A11001), and nuclei were stained with Hoechst. Images were acquired on a CellInsight CX5 high content platform (Thermo Scientific) using a 4× objective, and percentage infection calculated using CellInsight CX5 software (infected cells/total cells×100).
# (§7) Determination of % Inhibition—IF assay. Normalized percentages of inhibition were calculated using the following formula: […]
# [1] = system: cell surface heparan sulfate of Vero E6 cells; assay: Heparan sulfate presentation by anti-HS mAb 10E4 staining of Vero E6 cells; type: cell-based, African green monkey; conditions: Vero E6, 18 h
# SARS-CoV-2 = SARS-CoV-2 infected hamsters, oral halofuginone, lung pathology; type: in vivo; conditions: vs PBS
# Description: FIG. 37A-FIG. 37F: Oral dosing of halofuginone to hamsters infected with SARS-CoV-2 improved hamster lung pathology relative to a control group of hamsters (PBS).
# hepcidin expression [2] = assay: Hepcidin expression in the mouse liver upon iron loading; type: in vivo; conditions: mice, 1 μg per mouse per day for 8 days, iron-rich diet (8.3 g/kg) for 7 days
# Method: FIG. 10. […] Mice treated with Halofuginone for 8 days, 1 μg per mouse per day. Mice were either on normal iron-balanced chow (0.2 g/kg) or iron-rich diet (8.3 g/kg) for 7 days in conjunction with the treatment.
# [3] = system: recombinant SARS-CoV-2 spike RBD protein binding to Caco-2 cells
# hepcidin expression [4] = assay: Hepcidin expression in Hep3B human hepatocytes; type: cell-based
# Method: FIG. 6. Hep3B—18 hr incubation.
# FIG. 7. Hep3B—24 hr incubation.
# authentic SARS-CoV-2 = assay: microbe, parasite or virus in culture; type: cell-based
# [5] = system: recombinant SARS-CoV-2 spike RBD protein binding to Hep3B cells
# [6] = system: authentic SARS-COV-2 virus; assay: SARS-CoV-2 infected golden hamsters, intraperitoneal halofuginone; type: in vivo; conditions: for viral titer (TCID50 from nasal washes): 200 μg/kg intraperitoneally daily
# Method: FIG. 35A, FIG. 35B, and FIG. 35C.
# Six golden hamsters were dosed at 200 μg/kg with halofuginone starting at day −1, infected at day 0 with authentic SARS-COV-2 virus, and every day for five more days they received 200 μg/kg of halofuginone (FIG. 35A). Dosing was done intraperitoneally. A control group (n=6) was administered PBS. On day 3, half of the animals (n=3) in each group was sacrificed, and at day 5 the remaining animals (n=3) were sacrificed. TCID50 values as a measure of SARS-CoV-2 infectivity were measured from nasal washes at day 3 and day 5; the values were determined by viral cytopathic effect.
# [7] = system: SARS-CoV-2 spike protein pseudotyped VSV; type: cell-based
# HIV-1 = HIV-1 antiviral immunofluorescence assay in HeLa Tzmbl cells; type: cell-based; conditions: Human immunodeficiency virus 1, read-out: EC50 HIV-1
# Method: as §1, §2, §3, §4, §5, §6, §7
# [8] = system: core HSPGs in Hep3B cells; assay: HSPG core proteins by SDS-PAGE with mAb 3G10 in Hep3B cells; type: cell-based, human
structure (smiles),measurement,setting,value
O=C(CC1NCCCC1O)Cn1cnc2cc(Br)c(Cl)cc2c1=O (racemic) [halofuginone],EC50,DENV-2 (Dengue),35.4 nM
same,effect on heparan sulfate presentation (10E4 binding),[1],10E4 binding increased and did not significantly alter heparan sulfate production and presentation
same,effect on heparan sulfate presentation (10E4 binding),[1]; listed as Halofuginone,did not decrease cellular HS
same,"lung fibrosis, blood clotting, and inflammation",SARS-CoV-2; oral 1 mg/kg,"reduced lung fibrosis, blood clotting, and inflammation"
same,extended lung pathology,SARS-CoV-2; oral dosing,significant improvement
same,lung pathology severity,SARS-CoV-2; oral dosing,significant improvement
same,lung weight,SARS-CoV-2; oral dosing,significant improvement
same,macroscopic lung pathology,SARS-CoV-2; oral dosing,significant improvement
same,hepcidin expression in the liver,hepcidin expression [2],reduces hepcidin expression in the mouse liver
same,effect on spike (RBD) protein binding,[3],dose-dependently inhibited spike protein binding
same,effect on spike (RBD) protein binding,[3]; listed as Halofuginone,reduced spike RBD protein binding
same,basal hepcidin expression,hepcidin expression [4]; 18 hr incubation,inhibits basal hepcidin expression
same,BMP6 induced expression of hepcidin,hepcidin expression [4]; 24 hr incubation,inhibits BMP6 induced expression of hepcidin
same,IC50,"authentic SARS-CoV-2; Severe acute respiratory syndrome coronavirus 2, Vero C1008, Vero E6, excess proline in the media (4 mM), read-out: IC50 of SARS-CoV-2 infection, proline rescue experiment",210 nM
same,IC50,"authentic SARS-CoV-2; Severe acute respiratory syndrome coronavirus 2, Vero C1008, Vero E6, without excess proline, read-out: IC50 of SARS-CoV-2 infection, proline rescue experiment",12.5 nM
same,IC50,"authentic SARS-CoV-2; Severe acute respiratory syndrome coronavirus 2, Vero C1008, Vero E6, read-out: IC50 of SARS-CoV-2 infectivity, enantiomer comparison",28 nM
same,IC50,"authentic SARS-CoV-2; Severe acute respiratory syndrome coronavirus 2, Vero C1008, read-out: IC50 of SARS-CoV-2 infection",13 nM
same,effect on authentic SARS-CoV-2 infection,authentic SARS-CoV-2; Vero E6,inhibit SARS-CoV-2 infection
same,potency compared to chloroquine,authentic SARS-CoV-2; Vero E6,100 fold
same,inhibition of SARS-CoV-2 infectivity,"authentic SARS-CoV-2; Vero E6, 50 nM",completely inhibited SARS-CoV-2 infectivity
same,inhibition of SARS-CoV-2 infectivity,"authentic SARS-CoV-2; Vero E6, doses greater than 10 nM",complete inhibition of SARS-CoV-2 infectivity
same,decrease of SARS-CoV-2 RBD binding compared to excipient control (DMSO),"[5]; 1 μM, 18 h",84%
same,inhibition of spike RBD protein binding with excess proline,[5]; 4 mM proline in the media,prevented the ability of halofuginone to inhibit spike RED protein binding
same,effect on spike (RBD) protein binding,[5]; listed as Halofuginone,reduced spike RBD protein binding
same,viral titer (TCID50 from nasal washes),[6]; day 3 and day 5,significantly reduced viral titer by day 5 post infection
same,viral titer (TCID50 from nasal washes),"[6]; day 3 and day 5, listed as Halofuginone",potent anti-viral efficacy
same,body weight,"[6]; 200 μg/kg intraperitoneally, day -1 to day 5",no deleterious effect on body weight
same,inhibition of pseudotyped VSV infection,[7],about 30 fold
same,EC50,HIV-1,23.6 nM
same,expression of core HSPGs (mAb 3G10),[8],reduced the expression of core HSPGs in a dose-dependent manner
